According to paper PMC4278837, “A Cyclic Peptidic Serine Protease Inhibitor: Increasing Affinity by Increasing Peptide Flexibility” (PLoS ONE, 2014):
Square brackets hold non-standard residues; d marks the D form. Peptide text beside a SMILES is read from it. * marks the point of attachment. pNA = O=[N+]([O-])c1ccc(N*)cc1; pGlu = O=C1CC[C@@H](C(=O)O)N1

Columns and labels:
Conditions in all cases: 37°C, HBS with 0.1% BSA
[1] = molecular target: huPA-H99Y Q192A (Homo sapiens, UniProt P00749, H272Y/Q373A); experiment: KM for S-2444 hydrolysis by huPA-H99Y Q192A; assay type: biochemical; set-up: hexa-His (C); made in house; host or cells: HEK293 6E suspension cells
Experimental: (§1) Determination of K M values
(§2) To determine the K M values for hydrolysis of S-2444 (pyro-Glu-Gly-Arg-p-nitroanilide) by the different uPA variants used in the present study, a 200 µL 2-fold dilution series of the substrate (4 - 0 mM for huPA variants, 24 – 0 mM for muPA variants) in a buffer of 10 mM HEPES, pH 7.4, 140 mM NaCl (HEPES-buffered saline, HBS), with 0.1% bovine serum albumin (BSA), was incubated 2 min at 37°C, prior to the addition of a fixed concentration of each protease (approximaterly 2 nM final concentration). The initial reaction velocities (V i), monitored as the changes in absorbance at 405 nm, were plotted against the initial substrate concentration ([S]) and non-linear regression analysis was used to determine the K M according to equation 1: […]
(§3) The K M values for hydrolysis of S-2444 by the uPA variants employed in the present study are listed in S2 Table.

[2] = molecular target: T1, huPA-H99Y V41A (Homo sapiens, UniProt P00749, H272Y/V208A); experiment: KM for S-2444 hydrolysis by huPA-H99Y V41A; assay type: biochemical
T1 construct: To ensure that the uPAs purified from the conditioned media were completely in the two-chain form, they were treated with plasmin; hexa-His (C); made in house; host or cells: HEK293 6E suspension cells
Experimental: as §1, §2, §3

[3] = molecular target: T2, huPA wt (Homo sapiens, UniProt P00749); experiment: KM for S-2444 hydrolysis by huPA wt; assay type: biochemical
T2 construct: To ensure that the uPAs purified from the conditioned media were completely in the two-chain form, they were treated with plasmin; hexa-His (C); made in house; host or cells: HEK293 6E suspension cells
Experimental: as §1, §2, §3

[4] = molecular target: T3, muPA S190A (Mus musculus, UniProt P06869, S373A); experiment: KM for S-2444 hydrolysis by muPA S190A; assay type: biochemical, murine
T3 construct: To ensure that the uPAs purified from the conditioned media were completely in the two-chain form, they were treated with plasmin; hexa-His (C); made in house; host or cells: HEK293 6E suspension cells
T3 sequence (P06869 180-433 S373A): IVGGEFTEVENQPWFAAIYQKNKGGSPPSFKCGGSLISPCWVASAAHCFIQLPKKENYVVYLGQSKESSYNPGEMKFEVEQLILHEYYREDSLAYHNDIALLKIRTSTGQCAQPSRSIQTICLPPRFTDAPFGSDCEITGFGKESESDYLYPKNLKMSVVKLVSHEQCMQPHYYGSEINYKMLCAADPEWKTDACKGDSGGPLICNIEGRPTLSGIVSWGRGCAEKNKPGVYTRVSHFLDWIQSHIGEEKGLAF
T3 sequence (P06869 21-178 partner limits assumed): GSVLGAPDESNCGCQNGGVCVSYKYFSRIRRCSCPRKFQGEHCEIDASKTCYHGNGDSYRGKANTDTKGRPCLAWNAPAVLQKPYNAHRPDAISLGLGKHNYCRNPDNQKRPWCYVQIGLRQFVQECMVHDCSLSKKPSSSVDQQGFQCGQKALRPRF
Experimental: as §1, §2, §3

[5] = molecular target: T4, huPA-H99Y R35A (Homo sapiens, UniProt P00749, H272Y/R198A); experiment: KM for S-2444 hydrolysis by huPA-H99Y R35A; assay type: biochemical
T4 construct: To ensure that the uPAs purified from the conditioned media were completely in the two-chain form, they were treated with plasmin; hexa-His (C); made in house; host or cells: HEK293 6E suspension cells
Experimental: as §1, §2, §3

[6] = molecular target: T5, muPA V213T (Mus musculus, UniProt P06869, V396T); experiment: KM for S-2444 hydrolysis by muPA V213T; assay type: biochemical, murine
T5 construct: To ensure that the uPAs purified from the conditioned media were completely in the two-chain form, they were treated with plasmin; hexa-His (C); made in house; host or cells: HEK293 6E suspension cells
T5 sequence (P06869 180-433 V396T): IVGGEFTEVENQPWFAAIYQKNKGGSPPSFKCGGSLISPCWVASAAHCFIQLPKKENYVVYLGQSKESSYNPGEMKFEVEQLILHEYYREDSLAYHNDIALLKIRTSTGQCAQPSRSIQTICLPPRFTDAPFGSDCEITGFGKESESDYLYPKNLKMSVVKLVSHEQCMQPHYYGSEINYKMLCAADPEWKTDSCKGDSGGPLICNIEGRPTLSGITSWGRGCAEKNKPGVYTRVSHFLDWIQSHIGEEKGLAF
T5 sequence (P06869 21-178 partner limits assumed): as the sequence (P06869 21-178 partner limits assumed) above
Experimental: as §1, §2, §3

[7] = molecular target: T6, muPA wt (Mus musculus, UniProt P06869); experiment: KM for S-2444 hydrolysis by muPA wt; assay type: biochemical, murine
T6 construct: To ensure that the uPAs purified from the conditioned media were completely in the two-chain form, they were treated with plasmin; hexa-His (C); made in house; host or cells: HEK293 6E suspension cells
T6 sequence (P06869 180-433 limits assumed): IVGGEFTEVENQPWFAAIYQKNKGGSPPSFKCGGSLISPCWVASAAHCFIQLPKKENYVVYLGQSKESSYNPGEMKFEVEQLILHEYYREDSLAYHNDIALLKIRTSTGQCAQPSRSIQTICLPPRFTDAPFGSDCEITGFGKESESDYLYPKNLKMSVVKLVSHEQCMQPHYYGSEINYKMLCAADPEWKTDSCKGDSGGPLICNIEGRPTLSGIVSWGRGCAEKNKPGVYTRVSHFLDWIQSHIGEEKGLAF
T6 sequence (P06869 21-178 partner limits assumed): as the sequence (P06869 21-178 partner limits assumed) above
Experimental: as §1, §2, §3

[8] = molecular target: T7, huPA-H99Y K143A (Homo sapiens, UniProt P00749, H272Y/K320A); experiment: KM for S-2444 hydrolysis by huPA-H99Y K143A; assay type: biochemical
T7 construct: To ensure that the uPAs purified from the conditioned media were completely in the two-chain form, they were treated with plasmin; hexa-His (C); made in house; host or cells: HEK293 6E suspension cells
Experimental: as §1, §2, §3

[9] = molecular target: T8, muPA Y99A (Mus musculus, UniProt P06869, Y274A); experiment: KM for S-2444 hydrolysis by muPA Y99A; assay type: biochemical, murine
T8 construct: To ensure that the uPAs purified from the conditioned media were completely in the two-chain form, they were treated with plasmin; hexa-His (C); made in house; host or cells: HEK293 6E suspension cells
T8 sequence (P06869 180-433 Y274A): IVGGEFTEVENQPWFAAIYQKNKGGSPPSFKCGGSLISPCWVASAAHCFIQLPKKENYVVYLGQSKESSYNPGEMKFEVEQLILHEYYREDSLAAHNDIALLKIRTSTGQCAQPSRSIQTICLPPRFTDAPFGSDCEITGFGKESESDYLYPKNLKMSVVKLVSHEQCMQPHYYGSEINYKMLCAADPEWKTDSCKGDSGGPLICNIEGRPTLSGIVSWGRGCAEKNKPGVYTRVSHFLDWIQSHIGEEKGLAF
T8 sequence (P06869 21-178 partner limits assumed): as the sequence (P06869 21-178 partner limits assumed) above
Experimental: as §1, §2, §3

[10] = molecular target: T9, huPA-H99Y (Homo sapiens, UniProt P00749, H272Y); experiment: KM for S-2444 hydrolysis by huPA-H99Y; assay type: biochemical
T9 construct: To ensure that the uPAs purified from the conditioned media were completely in the two-chain form, they were treated with plasmin; hexa-His (C); made in house; host or cells: HEK293 6E suspension cells
Experimental: as §1, §2, §3

[11] = molecular target: T10, muPA K41A (Mus musculus, UniProt P06869, K210A); experiment: KM for S-2444 hydrolysis by muPA K41A; assay type: biochemical, murine
T10 construct: To ensure that the uPAs purified from the conditioned media were completely in the two-chain form, they were treated with plasmin; hexa-His (C); made in house; host or cells: HEK293 6E suspension cells
T10 sequence (P06869 180-433 K210A): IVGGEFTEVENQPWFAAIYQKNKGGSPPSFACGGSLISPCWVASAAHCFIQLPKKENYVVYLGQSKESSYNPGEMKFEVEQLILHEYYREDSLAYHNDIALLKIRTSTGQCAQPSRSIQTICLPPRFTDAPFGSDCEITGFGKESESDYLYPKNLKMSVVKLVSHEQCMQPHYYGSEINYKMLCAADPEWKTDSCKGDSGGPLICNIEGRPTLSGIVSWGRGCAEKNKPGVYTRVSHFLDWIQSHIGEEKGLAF
T10 sequence (P06869 21-178 partner limits assumed): as the sequence (P06869 21-178 partner limits assumed) above
Experimental: as §1, §2, §3

[12] = molecular target: T11, muPA K143A (Mus musculus, UniProt P06869, K322A); experiment: KM for S-2444 hydrolysis by muPA K143A; assay type: biochemical, murine
T11 construct: To ensure that the uPAs purified from the conditioned media were completely in the two-chain form, they were treated with plasmin; hexa-His (C); made in house; host or cells: HEK293 6E suspension cells
T11 sequence (P06869 180-433 K322A): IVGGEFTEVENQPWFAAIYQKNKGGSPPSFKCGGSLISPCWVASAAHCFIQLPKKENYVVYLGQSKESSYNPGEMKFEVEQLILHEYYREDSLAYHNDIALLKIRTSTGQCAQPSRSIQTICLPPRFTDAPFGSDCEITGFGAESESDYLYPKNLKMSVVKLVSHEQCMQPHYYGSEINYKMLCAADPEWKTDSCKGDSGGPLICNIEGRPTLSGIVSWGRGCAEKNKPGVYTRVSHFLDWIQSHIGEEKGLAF
T11 sequence (P06869 21-178 partner limits assumed): as the sequence (P06869 21-178 partner limits assumed) above
Experimental: as §1, §2, §3

`NC(N)=NCCC[C@H](NC(=O)CNC(=O)[C@@H]1CCC(=O)N1)C(=O)Nc1ccc([N+](=O)[O-])cc1` [S-2444, pyro-Glu-Gly-Arg-p-nitroanilide] ([pGlu]-Gly-Arg-pNA) was tested, and the Km [1] was 904 ± 178 µM, the Km [2] was 742 ± 73 µM and the Km [3] was 87 ± 0.3 µM. For the same compound, the Km [4] was 10800 ± 1000 µM, the Km [5] was 517 ± 156 µM and the Km [6] was 868 ± 350 µM. It also gave a Km [7] of 2400 ± 200 µM, a Km [8] of 500 ± 41 µM and a Km [9] of 3600 ± 300 µM. The Km [10] was 610 ± 110 µM, the Km [11] was 2500 ± 200 µM and the Km [12] was 1000 ± 400 µM.
